Values joined by “and” are separate entries in the source; they are usually repeats but may differ in a detail not shown here. Identical values can stand only once. Toxic doses and inconclusive results are not listed.
Test system: L1210 leukemia ip in BDF1 mice, survival T/C
Test: NCI In Vivo Anticancer Drug Screen. Data for tumor model L1210 Leukemia (intraperitoneal) in B6D2F1 (BDF1) mice
Conditions: endpoint: mean survival time, higher = longer survival
Summary of the method: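 Tumor cells were implanted, animals were treated, and survival was followed. The result divides the treated measurement by the vehicle-control measurement.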

[1] = dose: 25.0 mg/kg/injection, schedule: Q04DX003 (ip), vehicle: saline
[2] = dose: 50.0 mg/kg/injection, schedule: Q01DX009 (ip), vehicle: saline
[3] = dose: 50.0 mg/kg/injection, schedule: Q04DX003 (ip), vehicle: Klucel (hydroxypropylcellulose) (HPC)
[4] = dose: 50.0 mg/kg/injection, schedule: Q04DX003 (ip), vehicle: saline
[5] = dose: 100.0 mg/kg/injection, schedule: Q01DX001 (ip), vehicle: saline
[6] = dose: 100.0 mg/kg/injection, schedule: Q04DX003 (ip), vehicle: Klucel (hydroxypropylcellulose) (HPC)
[7] = dose: 200.0 mg/kg/injection, schedule: Q04DX003 (ip), vehicle: saline

c1nc(SSc2ncnc3nc[nH]c23)c2[nH]cnc2n1
T/C (dose: 0.1 mg/kg/injection, schedule: Q04DX003 (ip), vehicle: saline): 97 % of control
T/C (dose: 0.12 mg/kg/injection, schedule: Q04DX003 (ip), vehicle: saline): 119 % of control
T/C (dose: 0.2 mg/kg/injection, schedule: Q04DX003 (ip), vehicle: saline): 119 % of control
T/C (dose: 0.25 mg/kg/injection, schedule: Q04DX003 (ip), vehicle: saline): 117 % of control
T/C (dose: 0.35 mg/kg/injection, schedule: Q01DX009 (ip), vehicle: saline): 100 % of control
T/C (dose: 0.5 mg/kg/injection, schedule: Q04DX003 (ip), vehicle: saline): 120 % of control
T/C (dose: 0.8 mg/kg/injection, schedule: Q01DX009 (ip), vehicle: saline): 152 % of control
T/C (dose: 0.8 mg/kg/injection, schedule: Q04DX003 (ip), vehicle: saline with Tween-80): 98 % of control
T/C (dose: 1.6 mg/kg/injection, schedule: Q04DX003 (ip), vehicle: saline with Tween-80): 106 % of control
T/C (dose: 3.0 mg/kg/injection, schedule: Q04DX003 (ip), vehicle: saline): 239 % of control
T/C (dose: 3.08 mg/kg/injection, schedule: Q01DX001 (ip), vehicle: saline with Tween-80): 121 % of control
T/C (dose: 3.25 mg/kg/injection, schedule: Q04DX003 (ip), vehicle: saline with Tween-80): 113 % of control
T/C (dose: 5.5 mg/kg/injection, schedule: Q04DX003 (ip), vehicle: Klucel (hydroxypropylcellulose) (HPC)): 121 % of control
T/C (dose: 6.0 mg/kg/injection, schedule: Q04DX003 (ip), vehicle: saline): 112 % of control
T/C (dose: 7.5 mg/kg/injection, schedule: Q04DX003 (ip), vehicle: saline): 189 % of control
T/C (dose: 10.0 mg/kg/injection, schedule: Q01DX001 (ip), vehicle: saline): 118 % of control
T/C (dose: 10.0 mg/kg/injection, schedule: Q01DX009 (ip), vehicle: saline): 169 % of control
T/C (dose: 12.0 mg/kg/injection, schedule: Q01DX001 (ip), vehicle: saline): 103 % of control
T/C (dose: 12.0 mg/kg/injection, schedule: Q04DX003 (ip), vehicle: saline): 154 % of control
T/C (dose: 15.0 mg/kg/injection, schedule: Q01DX009 (ip), vehicle: saline): 154 % of control
T/C (dose: 15.0 mg/kg/injection, schedule: Q04DX003 (ip), vehicle: saline): 159 % of control
T/C [1]: 151 % of control
T/C (dose: 26.0 mg/kg/injection, schedule: Q04DX003 (ip), vehicle: saline with Tween-80): 157 % of control
T/C (dose: 29.7 mg/kg/injection, schedule: Q04DX003 (ip), vehicle: saline): 106 % of control
T/C (dose: 30.0 mg/kg/injection, schedule: Q04DX003 (ip), vehicle: saline): 90 % of control
T/C (dose: 33.0 mg/kg/injection, schedule: Q04DX003 (ip), vehicle: Klucel (hydroxypropylcellulose) (HPC)): 120 % of control
T/C (dose: 35.0 mg/kg/injection, schedule: Q01DX009 (ip), vehicle: saline with Tween-80): 163 % of control
T/C (dose: 35.0 mg/kg/injection, schedule: Q04DX003 (ip), vehicle: Klucel (hydroxypropylcellulose) (HPC)): 198 % of control
T/C (dose: 39.0 mg/kg/injection, schedule: Q04DX003 (ip), vehicle: saline with Tween-80): 172 % of control
T/C (dose: 44.0 mg/kg/injection, schedule: Q01DX009 (ip), vehicle: saline): 100 % of control
T/C (dose: 44.0 mg/kg/injection, schedule: Q04DX003 (ip), vehicle: saline): 202 % of control
T/C [2]: 106 % of control
T/C [3]: 152 % of control and 209 % of control
T/C [4]: 123 % of control and 203 % of control
T/C (dose: 52.0 mg/kg/injection, schedule: Q04DX003 (ip), vehicle: saline with Tween-80): 168 % of control
T/C (dose: 63.0 mg/kg/injection, schedule: Q01DX Z (ip), vehicle: saline): 95 % of control
T/C (dose: 66.0 mg/kg/injection, schedule: Q01DX001 (ip), vehicle: saline): 157 % of control
T/C (dose: 66.0 mg/kg/injection, schedule: Q04DX003 (ip), vehicle: saline): 216 % of control
T/C (dose: 67.5 mg/kg/injection, schedule: Q04DX003 (ip), vehicle: saline): 106 % of control
T/C (dose: 70.0 mg/kg/injection, schedule: Q01DX009 (ip), vehicle: saline with Tween-80): 93 % of control
T/C (dose: 70.0 mg/kg/injection, schedule: Q04DX003 (ip), vehicle: saline): 178 % of control
T/C [5]: 155 % of control
T/C [6]: 124 % of control
T/C (dose: 140.0 mg/kg/injection, schedule: Q04DX003 (ip), vehicle: saline): 103 % of control
T/C [7]: 89 % of control

NNC(=O)c1ccncc1
T/C (dose: 12.5 mg/kg/injection, schedule: Q01DX009 (ip), vehicle: saline): 98 % of control
T/C (dose: 19.25 mg/kg/injection, schedule: Q01DX Z (ip), vehicle: carboxymethylcellulose (CMC)): 103 % of control
T/C (dose: 25.0 mg/kg/injection, schedule: Q01DX009 (ip), vehicle: saline): 107 % of control
T/C [1]: 108 % of control
T/C (dose: 38.5 mg/kg/injection, schedule: Q01DX Z (ip), vehicle: carboxymethylcellulose (CMC)): 93 % of control
T/C [2]: 104 % of control
T/C [4]: 101 % of control
T/C (dose: 77.0 mg/kg/injection, schedule: Q01DX Z (ip), vehicle: carboxymethylcellulose (CMC)): 106 % of control
T/C [5]: 98 % of control
T/C (dose: 100.0 mg/kg/injection, schedule: Q01DX009 (ip), vehicle: saline): 100 % of control
T/C (dose: 100.0 mg/kg/injection, schedule: Q04DX003 (ip), vehicle: saline): 101 % of control
T/C (dose: 154.0 mg/kg/injection, schedule: Q01DX Z (ip), vehicle: carboxymethylcellulose (CMC)): 108 % of control
T/C [7]: 86 % of control

NC(=O)CCCCCCCCC(N)=O
T/C [5]: 98 % of control
T/C (dose: 200.0 mg/kg/injection, schedule: Q01DX001 (ip), vehicle: saline): 98 % of control
T/C (dose: 400.0 mg/kg/injection, schedule: Q01DX001 (ip), vehicle: saline): 92 % of control

O=C(N/N=C/c1ccc2c(c1)OCO2)c1ccc([N+](=O)[O-])cc1
T/C (dose: 50.0 mg/kg/injection, schedule: Q01DX001 (ip), vehicle: carboxymethylcellulose (CMC)): 97 % of control
T/C (dose: 100.0 mg/kg/injection, schedule: Q01DX001 (ip), vehicle: carboxymethylcellulose (CMC)): 92 % of control
T/C (dose: 200.0 mg/kg/injection, schedule: Q01DX001 (ip), vehicle: carboxymethylcellulose (CMC)): 94 % of control
T/C (dose: 400.0 mg/kg/injection, schedule: Q01DX001 (ip), vehicle: carboxymethylcellulose (CMC)): 92 % of control

O=C(Nc1ccc(C2=NCCCN2)cc1)Nc1ccc(NC(=O)Nc2ccc(C3=NCCCN3)cc2)c(Cl)c1
T/C (dose: 62.0 mg/kg/injection, schedule: Q01DX Z (ip), vehicle: carboxymethylcellulose (CMC)): 163 % of control
T/C (dose: 62.0 mg/kg/injection, schedule: Q01DX Z (oral), vehicle: carboxymethylcellulose (CMC)): 110 % of control
T/C (dose: 125.0 mg/kg/injection, schedule: Q01DX Z (oral), vehicle: carboxymethylcellulose (CMC)): 110 % of control
T/C (dose: 250.0 mg/kg/injection, schedule: Q01DX Z (oral), vehicle: carboxymethylcellulose (CMC)): 116 % of control
T/C (dose: 500.0 mg/kg/injection, schedule: Q01DX Z (oral), vehicle: carboxymethylcellulose (CMC)): 111 % of control

Cc1ccc(C(=O)Nc2ccc(OCCCc3c(N)nc(N)nc3N)cc2)cc1S(=O)(=O)F
T/C (dose: 25.0 mg/kg/injection, schedule: Q04DX003 (ip), vehicle: Klucel (hydroxypropylcellulose) (HPC)): 103 % of control
T/C [3]: 97 % of control
T/C [6]: 103 % of control

C[N+](C)(C)CCOC(=O)Nc1ccc(C(c2ccc(NC(=O)OCC[N+](C)(C)C)cc2)c2ccc(NC(=O)OCC[N+](C)(C)C)cc2)cc1
T/C (dose: 0.25 mg/kg/injection, schedule: Q01DX009 (ip), vehicle: saline with Tween-80): 98 % of control
T/C (dose: 0.5 mg/kg/injection, schedule: Q01DX009 (ip), vehicle: saline with Tween-80): 100 % of control

CCOC(=O)C1CCc2ccccc2CC1
T/C (dose: 200.0 mg/kg/injection, schedule: Q04DX003 (ip), vehicle: acetone): 100 % of control

NC(Cc1ccc(OCc2ccccc2)cc1)C(=O)O (configuration not stated)
T/C (dose: 100.0 mg/kg/injection, schedule: Q01DX001 (ip), vehicle: saline with Tween-80): 92 % of control
T/C (dose: 100.0 mg/kg/injection, schedule: Q01DX009 (ip), vehicle: saline with Tween-80): 95 % of control
T/C (dose: 200.0 mg/kg/injection, schedule: Q01DX001 (ip), vehicle: saline with Tween-80): 89 % of control
T/C (dose: 200.0 mg/kg/injection, schedule: Q01DX009 (ip), vehicle: saline with Tween-80): 90 % of control
T/C (dose: 400.0 mg/kg/injection, schedule: Q01DX001 (ip), vehicle: saline with Tween-80): 89 % of control
T/C (dose: 400.0 mg/kg/injection, schedule: Q01DX009 (ip), vehicle: saline with Tween-80): 96 % of control

Reference: PubChem BioAssay AID248 (DTP/NCI, 2004)
